Test results taken from patent publication US20050075398A1, “Neuroprotectin D1 protects against cellular apoptosis, stroke damage, alzheimer's disease and retinal diseases” (priority 2003, published 2005).
“Also recorded” adds a separate entry of the source.

How the values were obtained:
[1] = tested on: NF-κB-DNA binding activity; assay: EMSA of NF-κB in hippocampus after MCA-O; type: in vivo, mouse; settings: ipsilateral hippocampus; 1 h MCA-O, 2 h reperfusion; infused into third ventricle 3 h at 0.25 μl/h (NPD1 0.16 μg/ml)
Protocol: (§1) Electrophoretic mobility-shift assay (EMSA) of human AP1, HIF-1α, NF-κBp50/p65, and STAT-1α. Nuclear protein extracts (NPXTs) were prepared from one to three 3.5 cm-diameter wells of HN cells and quantitated. NPXTs (5 μg) derived from HN cells were incubated with[γ-^32P]-ATP (˜3000 Ci/mmol)-end-labeled AP1, HIF-1α, NF-κκBp50/p65, or STAT-1α consensus and mutant oligonucleotides in 5-μl volumes, reacted for 30 min on ice, analyzed on 5% or 10% acrylamide/90 mM Tris-borate pH 8.4, 1 mM EDTA (TBE) gels, dried onto 2-mm Whatman filter paper at 80° C. for 2 h, and phosphorimaged using a Typhoon Variable Mode Imager (Amersham Pharmacia Biotech, Piscataway, N.J. ).
FIGS. 7A, 7B, and 7C show mouse hippocampus after 1 h MCA-O was followed by 2 h reperfusion, where either vehicle, DHA, or 10,17S-docosatriene (NPD1) (0.16 μg/ml) was infused into the third ventricle for 3 h at 0.25 μl/h. […] NF-κB was increased over two fold in the ipsilateral hippocampus after MCA-O, and the infusion of either DHA or 10,17S-docosatriene (NPD1) inhibited ischemia-reperfusion-induced NF-κB activation by 28% and 48%, respectively (FIG. 7A).

[2] = tested on: IL-1β-induced HIF-1α activation; assay: EMSA of HIF-1α in IL-1β-exposed human neural progenitor cells; type: cell-based; settings: HN progenitor cells; IL-1β 10 ng/ml 3 h
Protocol: (§2) Human neural (HN) progenitor cells in primary culture. HN cells were grown to ˜70% confluence (˜50,000 cells per 3.5-cm diameter well) in 6-well COSTAR plates at 37° C., 5% CO2/20% O2/75% N2 in humidified air at 1 atm (normoxic conditions) in NPMM medium (Clonetics CC-4241) supplemented with hFGF, NSF-1, hEGF, GA-1000, as described by the manufacturer (Clonetics, Walkersville, Md.). HN cells tested negative for HIV-1, hepatitis B and C, mycoplasma, bacteria, yeast, and fungi, and positive for the glial and neuronal markers GFAP, MAP2, and β-tubulin III (Clonetics). […]
as §1

STAT-1 = assay: EMSA of STAT-1 in IL-1β-exposed human neural progenitor cells; type: cell-based; settings: HN progenitor cells
Protocol: as §2, §1

ARPE-19 cells = assay: Hoechst staining, TNFα/H2O2 oxidative stress-induced apoptosis; type: cell-based, human
Protocol: ARPE-19 cell culture and chemicals: ARPE-19 cells (L. M. Hjelmeland, ATCC # CRL-2302) were grown and maintained in DMEM-F12 medium supplemented with 10% FBS and incubated at 37° C. with a constant supply of 5% CO2. ARPE-19 cells are spontaneously transformed human retinal pigment epithelial cells that conserve cellular biological and functional properties. All chemicals were purchased from Sigma Chemical Co. (St. Louis, Mo.) unless otherwise indicated.
Hoechst staining: ARPE-19 cells were loaded with 2 μM Hoechst dissolved in a Locke's solution (Promega, Madison, Wis.) and incubated one h at 37° C. before imaging. Cells were then washed once with PBS and viewed using a Nikon DIAPHOT 200 microscope under UV fluorescence. Images were recorded by a Hamamatsu Color Chilled 3CCD camera and Photoshop 5.0 software, as described in Mukherjee, P. K., DeCoster, M. A., Campbell, F. Z., Davis, R. J. & Bazan, N. G. (1999) J. Biol. Chem. 274:6493-6498.
Several experimental conditions that result in reproducible oxidative-stress-induced apoptosis in ARPE-19 cells were tested. One condition chosen was the combination of TNFα with H2O2, both in relatively low concentrations. Typically 10 ng/ml of TNFα and 400-800 μM H2O2 led to marked increase in Hoechst-positive cells (Data not shown). Neither TNFα nor H2O2 alone triggered a significant effect under these conditions. (Data not shown).
Serum starvation made ARPE-19 cells more sensitive to oxidative stress-triggered apoptosis induced by TNFα/H2O2. Cells were grown in culture for 72 h in the presence of BSA (3.35 μM) with or without DHA (6.7 μM). Endogenous NPD1 formation was enhanced by BSA-DHA (FIG. 12A).
In the next experiment, confluent cells were starved for 8 h, then TNFα/H2O2 was added and incubated for 14 h before staining with Hoechst reagent. NPD1 (50 nM) was added at the time of adding TNFα/H2O2. […] When the TNFα concentration (10 ng/ml) was maintained and H2O2 concentration was decreased from 800 to 400 μM, fewer Hoechst-positive cells were seen. […] (Data not shown).

Bad = assay: Western blot of Bad in ARPE-19 cells under TNFα/H2O2; type: cell-based, human; settings: 50 nM; similar conditions (800 μM H2O2 with TNFα)
Protocol: Analysis of pro- and anti-apoptotic proteins in ARPE-19 cells: Bcl-2 family proteins were analyzed by Western-blot analysis. In brief, 20-μg equivalents of each cell extract were subjected to electrophoresis on a 8-16% gel (Promega, Madison, Wis.) at 125 volts for 2 h. The proteins were transferred to nitrocellulose membrane at 30 volts for 1 h at 4° C. The membranes were subjected to treatment with primary antibodies of Bcl-2, Bcl-xL, Bax, and Bad for 1 h at room temperature, and probed 30 min with secondary antibody, goat anti-rabbit Ig:HRPO and HRP-conjugated anti-biotin antibody. (BD Sciences—Pharminogen, San Diego, Calif.) Then proteins were evaluated using an ECL kit. (Amersham Biosciences Corp., Piscataway, N.J.)
Using the same TNFα/H2O2 concentrations, Bcl-2 proteins were assayed. Cells were grown for 72 h after plating, placed in serum-free medium for 1 h, then incubated with TNFα/H2O2 for 6 h. Protein expression and Western-blot analysis were performed as described in Example 13. Data in FIGS. 14A, 14B, 14C and 14D represent four independent experiments with triplicate samples in each case. Anti-apoptotic protein Bcl-xL was enhanced in ARPE-19 cells by TNFα/H2O2 (800 μM) (FIG. 14B, first bar), whereas Bcl-2 was not changed (FIG. 14A, first bar).

CC/C=C\C[C@H](O)\C=C/C=C/C=C/[C@H](O)C/C=C\C/C=C\CCC(=O)O [NPD1, 10,17S-docosatriene]
inhibition of ischemia-reperfusion-induced NF-κB activation [1]: 48% | effect on IL-1β-induced HIF-1α activation [2]: but not IL-1β-induced HIF-1α activation, was inhibited | effect on STAT-1 (STAT-1): unaffected | inhibition of oxidative stress (TNFα/H2O2)-induced Hoechst-positive cells / apoptosis (ARPE-19 cells; 50 nM added with TNFα 10 ng/ml plus H2O2 (400-800 μM), 14 h): inhibition; also recorded: inhibited apoptosis | inhibition of oxidative stress caused by the lower H2O2 concentration (ARPE-19 cells; 50 nM, TNFα 10 ng/ml plus H2O2 400 μM): almost completely inhibited | decrease of oxidative stress-increased Bad (Bad): 52%
